Laboratory results taken from patent US20130157954A1, “METHODS FOR TREATMENT OR PROPHYLAXIS OF KIDNEY OR LIVER DYSFUNCTION” (NPS PHARMACEUTICALS, INC., priority 2010, published 2013).

Experiment: Example 1: kidney biomarkers (urea nitrogen, creatinine, GFR) in short bowel syndrome patients, every four weeks for 24 weeks; also sorted by >5% change from baseline
Type: in vivo, Human
Design: CREATININE (RATE BLANKED) Change from Baseline Median / GFR Median / GFR Change from Baseline Median / UREA NITROGEN Median / UREA NITROGEN Change from Baseline Median: unit not given here
Conditions: for CREATININE (RATE BLANKED) change from baseline <−5%, number of patients / CREATININE (RATE BLANKED) change from baseline <−5%, percent of patients / CREATININE (RATE BLANKED) change from baseline >5%, number of patients / CREATININE (RATE BLANKED) change from baseline >5%, percent of patients / CREATININE (RATE BLANKED) change from baseline −5% <= and <=5%, number of patients / CREATININE (RATE BLANKED) change from baseline −5% <= and <=5%, percent of patients / GFR change from baseline <−5%, number of patients / GFR change from baseline <−5%, percent of patients / GFR change from baseline >5%, number of patients / GFR change from baseline >5%, percent of patients / GFR change from baseline −5% <= and <=5%, number of patients / GFR change from baseline −5% <= and <=5%, percent of patients / UREA NITROGEN change from baseline <−5%, number of patients / UREA NITROGEN change from baseline <−5%, percent of patients / UREA NITROGEN change from baseline >5%, number of patients / UREA NITROGEN change from baseline >5%, percent of patients / UREA NITROGEN change from baseline −5% <= and <=5%, number of patients / UREA NITROGEN change from baseline −5% <= and <=5%, percent of patients: 0.1 mg/kg/day
Experimental: Human patients with short bowel syndrome were divided into three groups: a control group (16 total individuals) to receive placebo, an experimental group (35 total individuals) to receive teduglutide at 0.05 mg/kg/day throughout the study, and an experimental group (32 total individuals) to receive teduglutide at 0.1 mg/kg/day throughout the study. Patients were treated by subcutaneous injection of placebo or the appropriate dose of teduglutide. As individuals with short bowel syndrome are likely to experience associated liver and kidney disease, known biomarkers of liver and kidney function were monitored every four weeks, for 24 weeks. The liver biomarkers tested included total bilirubin, ALT and AST and ALP. The kidney biomarkers tested included urea nitrogen, creatinine and GFR. Before administration of placebo or teduglutide, diagnostic biomarker levels were tested to establish a baseline for each individual.
To visualize the effect of GLP-2 on the levels of the diagnostic biomarkers, the average change from baseline was calculated for the placebo and teduglutide treated groups for each visit after a baseline was established. The average change from baseline of each group is depicted in FIGS. 1-7. The numerical figures for each diagnostic biomarker at each time point are depicted in Table 1.
The raw data for this sorting is reproduced in Table 2 below.

CC[C@H](C)[C@H](NC(=O)[C@H](Cc1ccccc1)NC(=O)[C@H](CC(=O)O)NC(=O)[C@H](CCCNC(=N)N)NC(=O)[C@H](C)NC(=O)[C@H](C)NC(=O)[C@H](CC(C)C)NC(=O)[C@H](CC(N)=O)NC(=O)[C@H](CC(=O)O)NC(=O)[C@H](CC(C)C)NC(=O)[C@@H](NC(=O)[C@@H](NC(=O)[C@H](CC(N)=O)NC(=O)[C@H](CCSC)NC(=O)[C@H](CCC(=O)O)NC(=O)[C@H](CC(=O)O)NC(=O)[C@H](CO)NC(=O)[C@H](Cc1ccccc1)NC(=O)[C@H](CO)NC(=O)CNC(=O)[C@H](CC(=O)O)NC(=O)CNC(=O)[C@@H](N)Cc1c[nH]cn1)[C@@H](C)O)[C@@H](C)CC)C(=O)N[C@@H](CC(N)=O)C(=O)N[C@@H](Cc1c[nH]c2ccccc12)C(=O)N[C@@H](CC(C)C)C(=O)N[C@H](C(=O)N[C@@H](CCC(N)=O)C(=O)N[C@H](C(=O)N[C@@H](CCCCN)C(=O)N[C@H](C(=O)N[C@H](C(=O)N[C@@H](CC(=O)O)C(=O)O)[C@@H](C)O)[C@@H](C)CC)[C@@H](C)O)[C@@H](C)CC [teduglutide]
CREATININE (RATE BLANKED) Change from Baseline Median (0.10 mg/kg/day, DW4): −0.5
CREATININE (RATE BLANKED) Median (0.10 mg/kg/day, DW4): 83 µmol/L
GFR Change from Baseline Median (0.10 mg/kg/day, DW4): 3.1
UREA NITROGEN Change from Baseline Median (0.10 mg/kg/day, DW4): 0.2
UREA NITROGEN Median (0.10 mg/kg/day, DW4): 6.3
CREATININE (RATE BLANKED) Change from Baseline Median (0.10 mg/kg/day, DW8): 0.0
CREATININE (RATE BLANKED) Median (0.10 mg/kg/day, DW8): 86 µmol/L
GFR Change from Baseline Median (0.10 mg/kg/day, DW8): 0.2
UREA NITROGEN Change from Baseline Median (0.10 mg/kg/day, DW8): 0.1
UREA NITROGEN Median (0.10 mg/kg/day, DW8): 6.4
CREATININE (RATE BLANKED) Change from Baseline Median (0.10 mg/kg/day, DW12): 6.5
GFR Change from Baseline Median (0.10 mg/kg/day, DW12): −0.5
UREA NITROGEN Change from Baseline Median (0.10 mg/kg/day, DW12): 0.0
UREA NITROGEN Median (0.10 mg/kg/day, DW12): 5.9
CREATININE (RATE BLANKED) Change from Baseline Median (0.10 mg/kg/day, DW16): 0.0
GFR Change from Baseline Median (0.10 mg/kg/day, DW16): 1.1
UREA NITROGEN Change from Baseline Median (0.10 mg/kg/day, DW16): 0.0
UREA NITROGEN Median (0.10 mg/kg/day, DW16): 6.1
CREATININE (RATE BLANKED) Change from Baseline Median (0.10 mg/kg/day, DW20): 0.0
CREATININE (RATE BLANKED) Median (0.10 mg/kg/day, DW20): 88 µmol/L
GFR Change from Baseline Median (0.10 mg/kg/day, DW20): 1.5
UREA NITROGEN Change from Baseline Mean (SD) (0.10 mg/kg/day, DW20): −0.0 (1.60)
UREA NITROGEN Change from Baseline Median (0.10 mg/kg/day, DW20): −0.1
UREA NITROGEN Median (0.10 mg/kg/day, DW20): 6.0
CREATININE (RATE BLANKED) Change from Baseline Median (0.10 mg/kg/day, DW 24): 0.0
CREATININE (RATE BLANKED) Median (0.10 mg/kg/day, DW 24): 81 µmol/L
GFR Change from Baseline Median (0.10 mg/kg/day, DW 24): 2.3
UREA NITROGEN Change from Baseline Median (0.10 mg/kg/day, DW 24): 0.3
UREA NITROGEN Median (0.10 mg/kg/day, DW 24): 5.9
CREATININE (RATE BLANKED) change from baseline <−5%, number of patients (week 4): 12
CREATININE (RATE BLANKED) change from baseline <−5%, percent of patients (week 4): (37.5%)
CREATININE (RATE BLANKED) change from baseline >5%, number of patients (week 4): 7
CREATININE (RATE BLANKED) change from baseline >5%, percent of patients (week 4): (21.9%)
CREATININE (RATE BLANKED) change from baseline −5% <= and <=5%, number of patients (week 4): 13
CREATININE (RATE BLANKED) change from baseline −5% <= and <=5%, percent of patients (week 4): (40.6%)
GFR change from baseline <−5%, number of patients (week 4): 7
GFR change from baseline <−5%, percent of patients (week 4): (21.9%)
GFR change from baseline >5%, number of patients (week 4): 14
GFR change from baseline >5%, percent of patients (week 4): (43.8%)
GFR change from baseline −5% <= and <=5%, number of patients (week 4): 11
GFR change from baseline −5% <= and <=5%, percent of patients (week 4): (34.4%)
UREA NITROGEN change from baseline <−5%, number of patients (week 4): 10
UREA NITROGEN change from baseline <−5%, percent of patients (week 4): (31.3%)
UREA NITROGEN change from baseline >5%, number of patients (week 4): 15
UREA NITROGEN change from baseline >5%, percent of patients (week 4): (46.9%)
UREA NITROGEN change from baseline −5% <= and <=5%, number of patients (week 4): 7
UREA NITROGEN change from baseline −5% <= and <=5%, percent of patients (week 4): (21.9%)
CREATININE (RATE BLANKED) change from baseline <−5%, number of patients (week 8): 8
CREATININE (RATE BLANKED) change from baseline <−5%, percent of patients (week 8): (25.0%)
CREATININE (RATE BLANKED) change from baseline >5%, number of patients (week 8): 13
CREATININE (RATE BLANKED) change from baseline >5%, percent of patients (week 8): (40.6%)
CREATININE (RATE BLANKED) change from baseline −5% <= and <=5%, number of patients (week 8): 10
CREATININE (RATE BLANKED) change from baseline −5% <= and <=5%, percent of patients (week 8): (31.3%)
GFR change from baseline <−5%, number of patients (week 8): 9
GFR change from baseline <−5%, percent of patients (week 8): (28.1%)
GFR change from baseline >5%, number of patients (week 8): 9
GFR change from baseline >5%, percent of patients (week 8): (28.1%)
GFR change from baseline −5% <= and <=5%, number of patients (week 8): 13
GFR change from baseline −5% <= and <=5%, percent of patients (week 8): (40.6%)
UREA NITROGEN change from baseline <−5%, number of patients (week 8): 9
UREA NITROGEN change from baseline <−5%, percent of patients (week 8): (28.1%)
UREA NITROGEN change from baseline >5%, number of patients (week 8): 15
UREA NITROGEN change from baseline >5%, percent of patients (week 8): (46.9%)
UREA NITROGEN change from baseline −5% <= and <=5%, number of patients (week 8): 7
UREA NITROGEN change from baseline −5% <= and <=5%, percent of patients (week 8): (21.9%)
CREATININE (RATE BLANKED) change from baseline <−5%, number of patients (week 12): 9
CREATININE (RATE BLANKED) change from baseline <−5%, percent of patients (week 12): (28.1%)
CREATININE (RATE BLANKED) change from baseline >5%, number of patients (week 12): 17
CREATININE (RATE BLANKED) change from baseline >5%, percent of patients (week 12): (53.1%)
